Results: patent US20240024403A1, “Compositions and Methods for Managing Weight” (Unigen, Inc., priority 2012, published 2024)

Assay: High fat diet induced obesity (DIO) mouse model
Format: in vivo, C57CL/6J mice
Settings: DIO mice
Method: C57CL/6J mice aged 4-6 weeks (Korea Research Institute of Bioscience & Biotechnology, Ohchang, Korea) were housed in Polycarbonate cages (five mice per cage) in a room with a 12 hr:12 hr light-dark cycle and an ambient temperature of 24° C. All the mice were fed a commercial chow diet for 1 week after arrival in the animal facility. Mice were then divided into normal and obesity groups and fed with normal diet (ND) and high fat diets (HFD) respectively. The HFD group was divided into multiple treatment groups: a high fat diet vehicle group (HFD), an orlistat (purchased as OTC drug Alli®) positive control treatment group (ORI, 40 mg/kg of animal weight, 2 times/day) and optionally a sibutramine positive control treatment group (10 mg/kg, 1 time/day). The HFD contained 340 g of fat/kg of HFD (310 g lard plus 30 g soybean oil; Harlan Laboratories, USA). The HFD was formulated to provide 60% of the total energy generated by the diet from fat by replacing carbohydrate energy with lard and soybean oil, whereas the normal diet (ND) group was fed a diet providing only 18% of the total diet energy from fat(Harlan Laboratories, USA).
Body weight was measured once each week and feed intake was measured twice per week. At the end of the experimental period, following a 12 hr. fasting period, the animals were anesthetized with ether, and blood was drawn from the abdominal vein. Liver and kidney and adipose tissues (epididymal, retroperitoneal, perirenal adipose tissues) were removed from each animal, rinsed with physiological saline, and weighed. Serum concentrations of glucose, total cholesterol, triglycerides, and LDL-cholesterol were determined using automatic analyzer (INTEGRA 400, Roche, Germany). Statistical significance of test results was measured using the Student's t-test.

[1] = G1-G4 1000 mg/kg oral gavage two times per day
[2] = G1-G4 1000 mg/kg oral gavage two times per day, in g (unit assumed)
[3] = G1 = 800 mg/kg orally twice a day
[4] = G1 = 1,100 mg/kg orally twice a day
[5] = G1 = 1,200 mg/kg orally twice a day
[6] = Mean score, G1 1,300 mg/kg twice a day
[7] = Mean, Composition 11 (G1) 1,300 mg/kg twice a day, oral
[8] = Mean, G1 1,300 mg/kg twice a day

CCCCCCCCCCC[C@@H](C[C@@H]1OC(=O)[C@H]1CCCCCC)OC(=O)[C@H](CC(C)C)NC=O [ORI, orlistat]
Food Intake [1]: 2.675 g/day
Weight Gain [1]: 0.015 g/day
Absolute Organ Weight, Epididymal Fat [2]: 1.998
Absolute Organ Weight, Liver [2]: 1.184
ALP [3]: 177.35 U/L
ALT [3]: 23.03 U/L
AST [3]: 51.40 U/L
Absolute Organ Weight: Epididymal fat [3]: 2.03 g
Absolute Organ Weight: Liver [3]: 1.19 g
Absolute Organ Weight: PeriRenal fat [3]: 0.29 g
Absolute Organ Weight: Retroperitoneal fat [3]: 0.5 g
Body Weight Gain [3]: -0.004 g/day
Food Intake [3]: 3.147 g/day
LDL-C [3]: 4.28 mg/dL
T-chol [3]: 155.83 mg/dL
TG [3]: 88.33 mg/dL
TP [3]: 5.08 g/dL
ALT [4]: 23.03 U/L
AST [4]: 51.40 U/L
Absolute Organ Weight: Epididymal Fat [4]: 2.03 g
Absolute Organ Weight: Liver [4]: 1.19 g
Absolute Organ Weight: PeriRenal Fat [4]: 0.29 g
Absolute Organ Weight: Retroperitoneal Fat [4]: 0.5 g
Body Weight Gain [4]: -0.004 g/day
Food Intake [4]: 3.147 g/day
LDL-C [4]: 4.28 mg/dL
T-chol [4]: 155.83 mg/dL
TG [4]: 88.33 mg/dL
TP [4]: 5.08 g/dL
ALT [5]: 23.03 U/L
AST [5]: 51.40 U/L
Absolute Organ Weight: Epididymal Fat [5]: 2.03 g
Absolute Organ Weight: Liver [5]: 1.19 g
Absolute Organ Weight: PeriRenal Fat [5]: 0.29 g
Absolute Organ Weight: Retroperitoneal Fat [5]: 0.5 g
Food Intake [5]: 3.147 g/day
LDL-C [5]: 4.28 mg/dL
T-chol [5]: 155.83 mg/dL
TG [5]: 88.33 mg/dL
TP [5]: 5.08 g/dL
Weight Gain [5]: -0.004 g/day
Liver pathology: Hepatocellular ballooning (0-2) [6]: 0.33
Liver pathology: Lobular Inflammation (0-3) [6]: 1.50
Liver pathology: Steatosis (0-3) [6]: 0.33
Body Weight Gain [7]: -0.004 g/day
Food Intake [7]: 3.147 g/day
ALP [8]: 177.35 U/L
ALT [8]: 23.03 U/L
AST [8]: 51.40 U/L
Absolute Organ Weight: Epididymal Fat [8]: 2.03 g
Absolute Organ Weight: Liver [8]: 1.19 g
Absolute Organ Weight: PeriRenal Fat [8]: 0.29 g
Absolute Organ Weight: Retroperitoneal Fat [8]: 0.5 g
HDL-C [8]: 75.57 mg/dL
LDL-C [8]: 4.28 mg/dL
TP [8]: 5.08 g/dL
FER (Food efficiency ratio) (Mean, body weight gain (g/day)/food intake (g/day), G1 1,300 mg/kg twice a day): −0.001
Liver pathology: NSAH (sum) (Mean, sum of scores, G1 1,300 mg/kg twice a day): 2.17
Absolute organ weight: Total Fat (Mean, sum of the three fat pads, G1 1,300 mg/kg twice a day): 2.82 g
FER (Food efficiency ratio) (ORI group, mean, Table 136): 0.000
Food Intake (ORI group, mean, Table 136): 3.195 g/day
Weight Gain (ORI group, mean, Table 136): 0.000 g/day
ALT (ORI group, mean, Table 137): 21.83 U/L
AST (ORI group, mean, Table 137): 65.65 U/L
